# Values joined by “and” are separate entries in the source; they are usually repeats but may differ in a detail not shown here. Equal entries are not always repeated. “Also recorded” adds a separate entry of the source.
# What was measured:
# cough = assay: antitussive activity: cough induced by sulfuric acid atmosphere (Chen et al. 1960), oral; type: in vivo, guinea pig (male); settings: for inhibition of the cough (individual animal) / number of coughs after administration (individual animal) / inhibition of the cough, average value: one hour after administration; for inhibition of the cough (individual animal) / number of coughs after administration (individual animal): individual animals
# Experimental: This activity has been compared with the activity of codeine and dextromethorphan by the experimental mode of Chen, J.Y.P. and col. (1960), consisting in exciting guinea pigs subjected to an atmosphere of sulfuric acid to cough.
# There are used guinea pig males having a weight of 300-400 grs which are treated in respective lots, with codeine (40 mg/kg.; n=6), dextromethorphan (40 mg/kg.; n=6), theophane (20 mg/kg.; n=5) and theophane (40 mg/kg.; n=6), wherein "n" signifies the number of animals tested in the respective lots and the other data in the parentheses refers to the dosage amount, e.g. 40 mg/kg. The numbers of occurrences of coughing of each animal before and one hour after the oral administration of the drug are measured.
# In Table I are detailed the results obtained by the experiment, before and after the administration of the drug as well as the percentage of inhibition of the cough.
# [1] = tested on: Sprague-Dawley rats and fetuses of the first generation; assay: fetal and teratogenous toxicity, oral during organogenesis; type: in vivo, rat (Sprague-Dawley); settings: 20, 65 and 130 mg/kg/day oral
# Wistar rats = assay: subacute toxicity, repeated oral administration over 1 month; type: in vivo, rat (Wistar); settings: 20, 60 and 120 mg/kg/day oral, both sexes
# Experimental: The subacute toxicity of theophane has been studied after repeated oral administrations over a period of 1 month in Wistar rats of both sexes. The theophane dosage used was 20 mg/kg/day, 60 mg/kg/day and 120 mg/kg/day. One lot of control animals received only excipient.
# mouse = assay: acute toxicity in the mouse (Litchfield and Wilcoxon); type: in vivo
# From the text: (§1) The acute toxicity of theophane has been studied orally and i.p. in the mouse and in the rat. The LD50 and the limits of reliance have been determined by the technique of Litchfield and Wilcoxon. Table III summarizes the values of the obtained LD50, as well as of LD0.
# [2] = tested on: auxotrophic S.typhimurium strains; assay: mutagenic effect (Ames); type: cell-based; settings: six dosages in DMSO, presence and absence of metabolic activation
# From the text: The possible mutagenic effect of theophane has been evaluated according to the text described by Ames, B. N. and cols (1975) using auxotrophic S.typhimurium strains for the histidine. The product has been studied at six different dosages, dissolved in DMSO, and in the presence and absence of a system of metabolic activation and in front of positive controls.
# rat = assay: acute toxicity in the rat (Litchfield and Wilcoxon); type: in vivo
# From the text: as §1
# cardiovascular system = assay: cardiovascular activity (technique of Smith, 1961); type: in vivo, guinea pig (male); settings: 0.5 to 10 mg/kg
# From the text: The cardiovascular activity (technique of Smith, 1961) and the neuropharmacological activity (Irwin test) of the theophane product have been studied respectively in guinea pigs and rats (males).
# [3] = tested on: tracheal chain of guinea pigs; assay: bronchodilatory activity in vitro, tracheal chain of guinea pigs (Castillo and de Beer), histamine as bronchoconstrictor; set-up: species or system guinea pig (male); settings: for time elapsed until obtaining an activity of 50%: 5×10^-4 molar
# From the text: The bronchodilatory activity "in vitro" of the compound of the present invention has been studied, using the method of tracheal chain of guinea pigs, described by J. C. Castillo and E. J. J. de Beer in Pharmacol.Expt. Therap., 90, 104. The trachea of male guinea pigs having a weight of 250-350 grs were extracted; then the rings are sectioned, always endeavoring that the trachea is bathed by the corresponding perfusion liquid and under oxygenation conditions for joining posteriorly the tracheal rings by means of a silk yarn forming the chain giving response to the drugs to be administered. The chain is placed in the bath of organs fixed to the registering arm of a chymograph. The bath is to be maintained at the constant temperature of 37.5° C. and using, as the liquid, the Krebs-Hanselett solution.
# As a bronchoconstrictor drug, there is used histamine at a concentration of 1×10^-5 molar.
# The bronchodilatory activity of theophane and theophylline have been compared, for various dosages, and the results obtained are presented in Table II.
# [4] = 40 mg/kg oral, n=6, codeine p < 0.001, dextromethorphan and theophane p < 0.005
smiles,measurement,setting,value
"COc1ccc2c(c1)[C@]13CCCC[C@@H]1[C@H](C2)N(C)CC3 [Dextromethorphan, reference compound]",inhibition of the cough (individual animal),cough; 40 mg/kg oral,33.3% and 60.0% and 100.0% and 75.0% and 50.0%
same,number of coughs after administration (individual animal),cough; 40 mg/kg oral,4 and 6 and 0 and 1
same,"inhibition of the cough, average value",cough; [4],69.7 ± 27.0%
"COc1ccc2c(c1)[C@@]13CCCC[C@H]1[C@@H](C2)N(C)CC3.Cn1c(=O)c2c(ncn2CC(=O)O)n(C)c1=O.Cn1c(=O)c2c(ncn2CC(=O)O)n(C)c1=O [Theophane, complex of 3-methoxy-N-methylmorphinan with 7-theophyllineacetic acid (1:2)]",teratogenous effects,[1],does not induce teratogenous effects
same,toxic effects to gestating females and their offspring,[1],does not produce toxic effects to the gestating females and their offspring
same,"subacute toxicity (mortality, weight, diet consumption, hematic, biochemical, urinary parameters, histopathology)",Wistar rats,null toxicity
same,LD0,mouse; i.p.,102.3 mg/kg
same,LD0,mouse; oral,182.2 mg/kg
same,mutagenic activity,[2],does not have any mutagenic activity
same,reversion increase,[2],No reversion increase could be observed
same,LD0,rat; i.p.,156.4 mg/kg
same,LD0,rat; oral,204.4 mg/kg
same,effects on the cardiovascular system,cardiovascular system,do not produce effects on the cardiovascular system
same,bronchodilatory activity in vitro compared with theophylline (in words),[3],"bronchodilatory activity ""in vitro"" at lower concentrations than theophylline"
same,bronchodilatory activity,"[3]; 1 × 10^-3 molar, 1000 µM",100%
same,bronchodilatory activity,"[3]; 1 × 10^-4 molar, 100 µM",54.6%
same,bronchodilatory activity,"[3]; 1 × 10^-5 molar, 10 µM",0%
same,bronchodilatory activity,"[3]; 2 × 10^-4 molar, 200 µM",37.5%
same,time elapsed until obtaining an activity of 50%,[3],280 s
same,bronchodilatory activity,"[3]; 5 × 10^-4 molar, 500 µM",85.3%
same,bronchodilatory activity,"[3]; 5 × 10^-5 molar, 50 µM",8.3%
same,inhibition of the cough (individual animal),cough; 20 mg/kg oral,33.3% and 28.57% and 66.6% and 60.0%
same,number of coughs after administration (individual animal),cough; 20 mg/kg oral,4 and 10 and 1 and 2
same,"inhibition of the cough, average value","cough; 20 mg/kg oral, n=5, p < 0.005",44.35 ± 17.5%
same,inhibition of the cough (individual animal),cough; 40 mg/kg oral,60.0% and 72.2% and 30.7% and 100.0%
same,number of coughs after administration (individual animal),cough; 40 mg/kg oral,2 and 5 and 9 and 0 and 4
same,"inhibition of the cough, average value",cough; [4],70.5 ± 26.6%
same,antitussive activity (in words),"cough; oral, 20 and 40 mg/kg, guinea pigs",potent antitussive activity; also recorded: antitussive activity which is significant with regard to its proper control
same,"antitussive activity based on the 3-methoxy-N-methylmorphinan content, compared with dextromethorphan","cough; referring to the weight index, 40 mg/kg",greater antitussive activity
"COc1ccc2c3c1O[C@H]1[C@@H](O)C=C[C@H]4[C@@H](C2)N(C)CC[C@@]341 [Codeine, reference compound]",inhibition of the cough (individual animal),cough; 40 mg/kg oral,71.4% and 100.0% and 81.8%
same,number of coughs after administration (individual animal),cough; 40 mg/kg oral,2 and 0
same,"inhibition of the cough, average value",cough; [4],92.2 ± 12.5%
Cn1c(=O)c2[nH]cnc2n(C)c1=O [Theophylline],time elapsed until obtaining an activity of 50%,[3],180 s
same,inhibition at 1000 µM,"[3]; Cavia porcellus, 1 × 10^-3 molar",100%
same,inhibition at 100 µM,"[3]; Cavia porcellus, 1 × 10^-4 molar",10.4%
same,inhibition at 10 µM,"[3]; Cavia porcellus, 1 × 10^-5 molar",0%
same,inhibition at 200 µM,"[3]; Cavia porcellus, 2 × 10^-4 molar",30%
same,inhibition at 20 µM,"[3]; Cavia porcellus, 2 × 10^-5 molar",6.25%
same,inhibition at 500 µM,"[3]; Cavia porcellus, 5 × 10^-4 molar",59.1%
